This note sets out measurements from patent US9096624B2 (OSI Pharmaceuticals, LLC, priority 2009, dated 2015).

Experiment [1] addresses T1, FAK (Homo sapiens, UniProt Q05397). The experiment in a line: biochemical.
Experiment [2] addresses T1, FAK. The experiment in a line: Cell-based capture ELISA for inhibition of FAK autophosphorylation [pY397] in U87MG cells. The settings on record: Mean FAK Cell Mechanistic IC50 + 50% mP U87MG, + 50% mouse plasma. On the technique in general: In an ELISA, binding on a coated surface is turned into a signal by an enzyme label.

By IC50 is commonly meant the midpoint of a concentration-inhibition curve.

Each structure is given as a SMILES string. Some results are limits rather than exact numbers.

T1 sequence (Q05397 whole entry): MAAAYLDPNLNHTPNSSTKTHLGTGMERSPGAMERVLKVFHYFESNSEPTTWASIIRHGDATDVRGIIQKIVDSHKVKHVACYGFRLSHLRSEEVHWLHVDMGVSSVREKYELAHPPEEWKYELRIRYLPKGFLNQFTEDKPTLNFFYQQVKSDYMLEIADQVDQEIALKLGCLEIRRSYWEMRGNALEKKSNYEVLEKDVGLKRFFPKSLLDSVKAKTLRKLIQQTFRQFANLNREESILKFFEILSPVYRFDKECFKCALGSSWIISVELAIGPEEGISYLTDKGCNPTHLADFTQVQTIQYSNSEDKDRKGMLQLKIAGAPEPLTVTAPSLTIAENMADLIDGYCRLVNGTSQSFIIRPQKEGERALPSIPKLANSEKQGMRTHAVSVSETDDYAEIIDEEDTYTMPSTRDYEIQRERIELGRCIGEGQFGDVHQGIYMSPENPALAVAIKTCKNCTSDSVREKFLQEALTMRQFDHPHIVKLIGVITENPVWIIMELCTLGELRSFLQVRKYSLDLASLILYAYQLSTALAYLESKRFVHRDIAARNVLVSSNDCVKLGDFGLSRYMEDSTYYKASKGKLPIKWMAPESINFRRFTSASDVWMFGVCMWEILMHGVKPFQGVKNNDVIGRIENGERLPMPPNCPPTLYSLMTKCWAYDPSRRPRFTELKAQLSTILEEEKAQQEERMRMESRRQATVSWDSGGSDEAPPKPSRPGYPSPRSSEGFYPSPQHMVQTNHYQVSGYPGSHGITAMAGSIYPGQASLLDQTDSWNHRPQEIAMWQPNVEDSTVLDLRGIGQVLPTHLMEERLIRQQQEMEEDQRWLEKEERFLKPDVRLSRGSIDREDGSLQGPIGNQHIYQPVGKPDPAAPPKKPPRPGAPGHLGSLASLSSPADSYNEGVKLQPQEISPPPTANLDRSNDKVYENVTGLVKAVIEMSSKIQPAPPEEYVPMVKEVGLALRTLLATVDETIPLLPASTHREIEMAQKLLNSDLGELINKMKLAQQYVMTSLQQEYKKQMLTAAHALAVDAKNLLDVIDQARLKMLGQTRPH

For the compound `CCOP(=O)(CC)Cc1ccc(Nc2ncc(C(F)(F)F)c(Nc3ccc([C@H]4CC[C@H](O)CC4)c4c3C(=O)N(C)C4)n2)cc1` (stereo partly drawn) [Example 202, Ethyl ethyl(4-{[4-{[7-(trans-4-hydroxycyclohexyl)-2-methyl-3-oxo-2,3-dihydro-1H-isoindol-4-yl]amino}-5-(trifluoromethyl)pyrimidin-2-yl]amino}benzyl)phosphinate], the IC50 against FAK [1] and on FAK [2] was less than 1000 nM throughout.
Turning to `CCOP(=O)(Cc1ccc(Nc2ncc(C(F)(F)F)c(Nc3ccc(N4CCC(C(=O)O)CC4)c4c3C(=O)N(C)C4)n2)c(OC)c1)OCC` [Example 256, 1-(7-{[2-({4-[(Diethoxyphosphoryl)methyl]-2-methoxyphenyl}amino)-5-(trifluoromethyl)pyrimidin-4-yl]amino}-2-methyl-1-oxo-2,3-dihydro-1H-isoindol-4-yl)piperidine-4-carboxylic acid], the IC50 on FAK [1] and on FAK [2] was less than 1000 nM each time.
For the compound `CCOP(=O)(Cc1ccc(Nc2ncc(C(F)(F)F)c(Nc3ccccc3C(=O)NOC)n2)c(OC)c1)OCC` [Example 259, Diethyl (3-methoxy-4-{[4-{[2-(methoxycarbamoyl)phenyl]amino}-5-(trifluoromethyl)pyrimidin-2-yl]amino}benzyl)phosphonate], the IC50 against FAK [1] and on FAK [2] was less than 1000 nM throughout.
As to `CCOP(=O)(Cc1ccc(Nc2ncc(C(F)(F)F)c(Nc3ccc(C4=CCNCC4)c4c3C(=O)N(C)C4)n2)c(OC)c1)OCC` [Example 262, Diethyl (3-methoxy-4-{[4-{[2-methyl-3-oxo-7-(1,2,3,6-tetrahydropyridin-4-yl)-2,3-dihydro-1H-isoindol-4-yl]amino}-5-(trifluoromethyl)pyrimidin-2-yl]amino}benzyl)phosphonate], the concentration for half-maximal inhibition (IC50) against FAK [1] and on FAK [2] was less than 1000 nM each time.
On to `CCOP(=O)(Cc1ccc(Nc2ncc(C(F)(F)F)c(Nc3ccc(C4CCNCC4)c4c3C(=O)N(C)C4)n2)c(OC)c1)OCC` [Example 263, Diethyl (3-methoxy-4-{[4-{[2-methyl-3-oxo-7-(piperidin-4-yl)-2,3-dihydro-1H-isoindol-4-yl]amino}-5-(trifluoromethyl)pyrimidin-2-yl]amino}benzyl)phosphonate], for which the IC50 against FAK [1] and at FAK [2] was less than 1000 nM each time.
For `CCOP(=O)(Cc1ccc(Nc2ncc(C(F)(F)F)c(Nc3ccc(C4=CCN(C)CC4)c4c3C(=O)N(C)C4)n2)c(OC)c1)OCC` [Example 264, Diethyl (3-methoxy-4-{[4-{[2-methyl-7-(1-methyl-1,2,3,6-tetrahydropyridin-4-yl)-3-oxo-2,3-dihydro-1H-isoindol-4-yl]amino}-5-(trifluoromethyl)pyrimidin-2-yl]amino}benzyl)phosphonate], the 50% inhibitory concentration (IC50) on FAK [1] and at FAK [2] was less than 1000 nM in each case.
On to `CCOP(=O)(Cc1ccc(Nc2ncc(C(F)(F)F)c(Nc3ccc([C@H]4CC[C@@H](C(=O)O)CC4)c4c3C(=O)N(C)C4)n2)cn1)OCC` [Example 267, cis-4-(7-{[2-({6-[(Diethoxyphosphoryl)methyl]pyridin-3-yl}amino)-5-(trifluoromethyl)pyrimidin-4-yl]amino}-2-methyl-1-oxo-2,3-dihydro-1H-isoindol-4-yl)cyclohexanecarboxylic acid], for which the IC50 is more than 10000 nM against FAK [1] and 1000 to 10000 nM at FAK [2].
As for `CCOP(=O)(Cc1ccc(Nc2ncc(C(F)(F)F)c(Nc3ccc([C@H]4CC[C@H](C(=O)O)CC4)c4c3C(=O)N(C)C4)n2)cn1)OCC` [Example 268, trans-4-(7-{[2-({6-[(diethoxyphosphoryl)methyl]pyridin-3-yl}amino)-5-(trifluoromethyl)pyrimidin-4-yl]amino}-2-methyl-1-oxo-2,3-dihydro-1H-isoindol-4-yl)cyclohexanecarboxylic acid], the half-maximal inhibitory concentration (IC50) at FAK [1] and on FAK [2] was 1000 to 10000 nM each time.
Regarding `CCOP(=O)(Cc1ccc(Nc2ncc(C(F)(F)F)c(Nc3ccc(C4CCN(C)CC4)c4c3C(=O)N(C)C4)n2)c(OC)c1)OCC` [Example 269, Diethyl (3-methoxy-4-{[4-{[2-methyl-7-(1-methylpiperidin-4-yl)-3-oxo-2,3-dihydro-1H-isoindol-4-yl]amino}-5-(trifluoromethyl)pyrimidin-2-yl]amino}benzyl)phosphonate], the half-inhibitory concentration (IC50) against FAK [1] and on FAK [2] was less than 1000 nM throughout.
Take `CCOP(=O)(Cc1ccc(Nc2ncc(C(F)(F)F)c(Nc3ccc(-c4ccc(C(=O)O)cc4)c4c3C(=O)N(C)C4)n2)c(OC)c1)OCC` [Example 270, 4-(7-{[2-({4-[(diethoxyphosphoryl)methyl]-2-methoxyphenyl}amino)-5-(trifluoromethyl)pyrimidin-4-yl]amino}-2-methyl-1-oxo-2,3-dihydro-1H-isoindol-4-yl)benzoic acid]: the values for the IC50 at FAK [1] and on FAK [2] were less than 1000 nM and 1000 to 10000 nM, respectively.
The matching figures for `CCOP(=O)(Cc1ccc(Nc2ncc(C(F)(F)F)c(Nc3ccc([C@H]4CC[C@@H](C(=O)NC)CC4)c4c3C(=O)N(C)C4)n2)c(OC)c1)OCC` [Example 271, Diethyl (3-methoxy-4-{[4-({2-methyl-7-[cis-4-(methylcarbamoyl)cyclohexyl]-3-oxo-2,3-dihydro-1H-isoindol-4-yl}amino)-5-(trifluoromethyl)pyrimidin-2-yl]amino}benzyl) phosphonate]: less than 1000 nM and less than 1000 nM.
In the same order, the values of `CCOP(=O)(Cc1ccc(Nc2ncc(C(F)(F)F)c(Nc3ccc([C@H]4CC[C@@H](C(N)=O)CC4)c4c3C(=O)N(C)C4)n2)c(OC)c1)OCC` [Example 272, Diethyl (4-{[4-{[7-(cis-4-carbamoylcyclohexyl)-2-methyl-3-oxo-2,3-dihydro-1H-isoindol-4-yl]amino}-5-(trifluoromethyl)pyrimidin-2-yl]amino}-3-methoxybenzyl)phosphonate] are less than 1000 nM and less than 1000 nM.
In the same order, the values of `CCOP(=O)(Cc1ccc(Nc2ncc(C(F)(F)F)c(Nc3ccc([C@H]4CC[C@@H](C(=O)N(C)C)CC4)c4c3C(=O)N(C)C4)n2)c(OC)c1)OCC` [Example 273, Diethyl (4-{[4-({7-[cis-4-(dimethylcarbamoyl)cyclohexyl]-2-methyl-3-oxo-2,3-dihydro-1H-isoindol-4-yl}amino)-5-(trifluoromethyl)pyrimidin-2-yl]amino}-3-methoxybenzyl)phosphonate] are less than 1000 nM and less than 1000 nM.
Regarding `CCOP(=O)(Cc1ccc(Nc2ncc(C(F)(F)F)c(Nc3ccc([C@H]4CC[C@@H](C(=O)OCCN(C)C)CC4)c4c3C(=O)N(C)C4)n2)c(OC)c1)OCC` [Example 274, 2-(Dimethylamino)ethyl cis-4-(7-{[2-({4-[(diethoxyphosphoryl)methyl]-2-methoxyphenyl}amino)-5-(trifluoromethyl)pyrimidin-4-yl]amino}-2-methyl-1-oxo-2,3-dihydro-1H-isoindol-4-yl)cyclohexanecarboxylate], the IC50 on FAK [1] and at FAK [2] was less than 1000 nM throughout.
Regarding `CCOP(=O)(Cc1ccc(Nc2ncc(C(F)(F)F)c(Nc3ccc([C@H]4CC[C@@H](C(=O)NO)CC4)c4c3C(=O)N(C)C4)n2)c(OC)c1)OCC` [Example 275, Diethyl (4-{[4-({7-[cis-4-(hydroxycarbamoyl)cyclohexyl]-2-methyl-3-oxo-2,3-dihydro-1H-isoindol-4-yl}amino)-5-(trifluoromethyl)pyrimidin-2-yl]amino}-3-methoxybenzyl)phosphonate], the IC50 on FAK [1] and at FAK [2] was less than 1000 nM in each case.
On to `CCOP(=O)(Cc1ccc(Nc2ncc(C(F)(F)F)c(Nc3ccc([C@H]4CC[C@@H](C(=O)NOC)CC4)c4c3C(=O)N(C)C4)n2)c(OC)c1)OCC` [Example 276, Diethyl (3-methoxy-4-{[4-({7-[cis-4-(methoxycarbamoyl)cyclohexyl]-2-methyl-3-oxo-2,3-dihydro-1H-isoindol-4-yl}amino)-5-(trifluoromethyl)pyrimidin-2-yl]amino}benzyl)phosphonate], for which the IC50 against FAK [1] and on FAK [2] was less than 1000 nM in each case.
Turning to `CCOP(=O)(Cc1ccc(Nc2ncc(C(F)(F)F)c(Nc3ccc([C@H]4CC[C@](C)(C(=O)O)CC4)c4c3C(=O)N(C)C4)n2)c(OC)c1)OCC` [Example 282, trans-4-(7-{[2-({4-[(Diethoxyphosphoryl)methyl]-2-methoxyphenyl}amino)-5-(trifluoromethyl)pyrimidin-4-yl]amino}-2-methyl-1-oxo-2,3-dihydro-1H-isoindol-4-yl)-1-methylcyclohexanecarboxylic acid], the half-inhibitory concentration (IC50) at FAK [1] and at FAK [2] was less than 1000 nM in each case.
For the compound `CCOP(=O)(Cc1ccc(Nc2ncc(C(F)(F)F)c(Nc3ccc([C@H]4CC[C@@H](C#N)CC4)c4c3C(=O)N(C)C4)n2)c(OC)c1)OCC` [Example 283, Diethyl (4-{[4-{[7-(cis-4-cyanocyclohexyl)-2-methyl-3-oxo-2,3-dihydro-1H-isoindol-4-yl]amino}-5-(trifluoromethyl)pyrimidin-2-yl]amino}-3-methoxybenzyl)phosphonate], the IC50 against FAK [1] and on FAK [2] was less than 1000 nM in each case.
For the compound `CCOP(=O)(Cc1ccc(Nc2ncc(C(F)(F)F)c(Nc3ccc([C@H]4CC[C@@](C)(C(=O)O)CC4)c4c3C(=O)N(C)C4)n2)c(OC)c1)OCC` [Example 284, cis-4-(7-{[2-({4-[(Diethoxyphosphoryl)methyl]-2-methoxyphenyl}amino)-5-(trifluoromethyl)pyrimidin-4-yl]amino}-2-methyl-1-oxo-2,3-dihydro-1H-isoindol-4-yl)-1-methylcyclohexanecarboxylic acid], the concentration for half-maximal inhibition (IC50) against FAK [1] and at FAK [2] was less than 1000 nM in each case.
In the case of `CCOP(=O)(Cc1ccc(Nc2ncc(C(F)(F)F)c(Nc3ccc([C@H]4CC[C@@](C(=O)O)(N(C)C)CC4)c4c3C(=O)N(C)C4)n2)c(OC)c1)OCC` [Example 285, cis-4-(7-{[2-({4-[(diethoxyphosphoryl)methyl]-2-methoxyphenyl}amino)-5-(trifluoromethyl)pyrimidin-4-yl]amino}-2-methyl-1-oxo-2,3-dihydro-1H-isoindol-4-yl)-1-(dimethylamino)cyclohexanecarboxylic acid], the IC50 at FAK [1] and at FAK [2] was less than 1000 nM each time.
